# US8936806B2, “Periostin induces proliferation of cardiomyocytes and promotes cardiac regeneration” (Children's Medical Center Corporation, priority 2007, dated 2015)
# Entries after “also recorded” stand apart in the source; their conditions may differ. Where two headings read alike, the source gives them in different places.
# B1: variant consisting of the 4 fas1 domains: periostin derivative consisting of 4 fas1 domains, purified from bacteria, molecular weight of 75 kDa (protein)
# chain: NNHYDKILAHSRIRGRDQGPNVCALQQILGTKKKYFSTCKNWYKKSICGQKTTVLYECCPGYMRMEGMKGCPAVLPIDHVYGTLGIVGATTTQRYSDASKLREEIEGKGSFTYFAPSNEAWDNLDSDIRRGLESNVNVELLNALHSHMINKRMLTKDLKNGMIIPSMYNNLGLFINHYPNGVVTVNCARIIHGNQIATNGVVHVIDRVLTQIGTSIQDFIEAEDDLSSFRAAAITSDILEALGRDGHFTLFAPTNEAFEKLPRGVLERFMGDKVASEALMKYHILNTLQCSESIMGGAVFETLEGNTIEIGCDGDSITVNGIKMVNKKDIVTNNGVIHLIDQVLIPDSAKQVIELAGKQQTTFTDLVAQLGLASALRPDGEYTLLAPVNNAFSDDTLSMVQRLLKLILQNHILKVKVGLNELYNGQILETIGGKQLRVFVYRTAVCIENSCMEKGSKQGRNGAIHIFREIIKPAEKSLHEKLKQDKRFSTFLSLLEAADLKELLTQPGDWTLFVPTNDAFKGMTSEEKEILIRDKNALQNIILYHLTPGVFIGKGFEPGVTNILKTTQGSKIFLKEVNDTLLVNELKSKESDIMTTNGVIHVVDKLLYPADTPVGNDQLLEILNKLIKYIQIKFVRGSTFKEIPVTVY
# B2: boiled periostin: boiled periostin used in control experiments to rule out a non-protein impurity (protein, UniProt Q15063 22-836, looked up)
# Periostin: NNHYDKILAHSRIRGRDQGPNVCALQQILGTKKKYFSTCKNWYKKSICGQKTTVLYECCPGYMRMEGMKGCPAVLPIDHVYGTLGIVGATTTQRYSDASKLREEIEGKGSFTYFAPSNEAWDNLDSDIRRGLESNVNVELLNALHSHMINKRMLTKDLKNGMIIPSMYNNLGLFINHYPNGVVTVNCARIIHGNQIATNGVVHVIDRVLTQIGTSIQDFIEAEDDLSSFRAAAITSDILEALGRDGHFTLFAPTNEAFEKLPRGVLERIMGDKVASEALMKYHILNTLQCSESIMGGAVFETLEGNTIEIGCDGDSITVNGIKMVNKKDIVTNNGVIHLIDQVLIPDSAKQVIELAGKQQTTFTDLVAQLGLASALRPDGEYTLLAPVNNAFSDDTLSMDQRLLKLILQNHILKVKVGLNELYNGQILETIGGKQLRVFVYRTAVCIENSCMEKGSKQGRNGAIHIFREIIKPAEKSLHEKLKQDKRFSTFLSLLEAADLKELLTQPGDWTLFVPTNDAFKGMTSEEKEILIRDKNALQNIILYHLTPGVFIGKGFEPGVTNILKTTQGSKIFLKEVNDTLLVNELKSKESDIMTTNGVIHVVDKLLYPADTPVGNDQLLEILNKLIKYIQIKFVRGSTFKEIPVTVYTTKIITKVVEPKIKVIEGSLQPIIKTEGPTLTKVKIEGEPEFRLIKEGETITEVIHGEPIIKKYTKIIDGVPVEITEKETREERIITGPEIKYTRISTGGGETEETLKKLLQEEVTKVTKFIEGGDGHLFEDEEIKRLLQGDTPVRKLQANKKVQGSRRRLREGRSQ
# modifications: heat-denatured
# notes: boiled periostin used in control experiments to rule out a non-protein impurity
# Experiments:
# [1] = test system: primary adult rat ventricular cardiomyocytes; assay: DNA synthesis (BrdU uptake, immunofluorescence) in primary adult rat ventricular cardiomyocytes; format: cell-based; design: inhibition of periostin-stimulated DNA synthesis by integrin antibodies: dose or concentration left out as unconfirmed; conditions: for inhibition of periostin-induced DNA synthesis / cell-cycle reentry by kinase inhibitors / inhibition of neuregulin-induced cell-cycle reentry: PD98059 1 mM; for inhibition of periostin-induced DNA synthesis / cell-cycle reentry by kinase inhibitors: U0126 10 mM, LY294002 10 mM, SH-6 10 mM, Akt1/2 inhibitor 1 mM [sic]; for inhibition of neuregulin-induced cell-cycle reentry: U0126 10 mM as printed
# Excerpt: Primary neonatal rat ventricular cardiomyocytes were isolated using the Neomyts kit (Cellutron, Highland Park, N.J.), seeded at a density of 10^5 cells/cm^2 onto gelatin-coated cover slips, stimulated for 3 days, and labeled with BrdU for the terminal 2 days. Primary adult ventricular cardiomyocytes were isolated from male (300 gm) Wistar rats (Charles River Laboratories) and maintained as described (Engel, F. B. et al. p38 MAP kinase inhibition enables proliferation of adult mammalian cardiomyocytes. Genes Dev 19, 1175-87 (2005)). Adult cardiomyocytes were stimulated daily for 9 days and labeled with 30 μM BrdU for the terminal 3 days. Cardiomyocytes were stimulated with periostin (500 ng/mL) and FGF (100 ng/mL). […] The vehicle used to dissolve factors or chemicals was added to unstimulated samples, which were then processed together with the test samples. DNA-synthesis was analyzed by visualization of BrdU uptake and cytokinesis was determined by detection of the cleavage furrow and the midbody with an antibody against aurora B kinase as described (Engel, F. B. et al. p38 MAP kinase inhibition enables proliferation of adult mammalian cardiomyocytes. Genes Dev 19, 1175-87 (2005)). Signals were visualized with secondary antibodies conjugated to Alexa 488, Alexa 546, Alexa 594, and Alexa 647 (Invitrogen). […] For image acquisition, the value for γ was set at 1 and the lookup table settings were linear. Primary adult rat ventricular cardiomyocytes were grown on gridded cover slips (Electron Microscopy Services, Ft. Washington, Pa.) and imaged in phase contrast at 10× magnification. Cardiomyocytes were transduced with an adenovirus leading to nuclear expression of histone2B-GFP (Shi, Q. & King, R. W. Nature 437, 1038-42 (2005)) under control of the chicken troponin T promoter ([…]. Am J Physiol Cell Physiol 286, […]-64 (2004)). Nuclei were visualized at 10× magnification with a mercury-arc lamp dimmed to 1.5% with a neutral density filter. […] Images of BrdU-positive cardiomyocytes were matched with the corresponding images from before stimulation. For quantification, differentiated cardiomyocytes were defined as striated rod-shaped structures with length/width ratio>1.5.
# [2] = test system: primary neonatal rat ventricular cardiomyocytes; assay: DNA synthesis, mitosis and cytokinesis in primary neonatal rat ventricular cardiomyocytes; format: cell-based; conditions: for inhibition of periostin-stimulated DNA synthesis by integrin blockers: cRGD 10 μM, antibodies 10 μg/mL; for induction of cardiomyocyte DNA synthesis: FIG. 2d, 2e
# Excerpt: Primary neonatal rat ventricular cardiomyocytes were isolated using the Neomyts kit (Cellutron, Highland Park, N.J.), seeded at a density of 10^5 cells/cm^2 onto gelatin-coated cover slips, stimulated for 3 days, and labeled with BrdU for the terminal 2 days. Primary adult ventricular cardiomyocytes were isolated from male (300 gm) Wistar rats (Charles River Laboratories) and maintained as described (Engel, F. B. et al. p38 MAP kinase inhibition enables proliferation of adult mammalian cardiomyocytes. Genes Dev 19, 1175-87 (2005)). Adult cardiomyocytes were stimulated daily for 9 days and labeled with 30 μM BrdU for the terminal 3 days. Cardiomyocytes were stimulated with periostin (500 ng/mL) and FGF (100 ng/mL). Inhibiting antibodies were added at a concentration of 10 μg/mL, cRGD at 10 μM, U0126 at 10 μM, PD98059 at 1 μM, LY294002 at 10 μM, and Wortmannin at 0.1 μM 30 min prior to stimulation. The vehicle used to dissolve factors or chemicals was added to unstimulated samples, which were then processed together with the test samples.
# DNA-synthesis was analyzed by visualization of BrdU uptake and cytokinesis was determined by detection of the cleavage furrow and the midbody with an antibody against aurora B kinase as described (Engel, F. B. et al. p38 MAP kinase inhibition enables proliferation of adult mammalian cardiomyocytes. Genes Dev 19, 1175-87 (2005)). Signals were visualized with secondary antibodies conjugated to Alexa 488, Alexa 546, Alexa 594, and Alexa 647 (Invitrogen). Nuclei were visualized with 4′,6′-diamidino-2-phenylindole (DAPI, Invitrogen). For image acquisition, the value for γ was set at 1 and the lookup table settings were linear.
# [3] = test system: primary neonatal rat ventricular cardiomyocytes; assay: Cardiomyocyte proliferation by cell count (hemocytometer); format: cell-based; conditions: for inhibition of periostin-stimulated proliferation by ERK and PI3-kinase inhibitors: U0126 10 μM, PD98059 1 μM, LY294002 10 μM, Wortmannin 0.1 μM; for inhibition of periostin-stimulated proliferation by integrin blockers: cRGD 10 μM, antibodies 10 μg/mL
# Description: To determine cardiomyocyte proliferation, primary neonatal rat ventricular cardiomyocytes were quantified by counting with a hemocytometer after 3 days and 6 days of stimulation. To determine cardiomyocyte survival, primary neonatal rat ventricular cardiomyocytes were pre-treated with 500 ng/mL periostin or buffer for 30 min and then exposed to 0.5 μM doxycycline or 100 ng/mL TNFα for 24 hr and quantified by counting. Corresponding samples were stained with an antibody directed against tropomyosin as a cardiomyocyte marker to control for the percentage of differentiated cardiomyocytes. Apoptotic cardiomyocyte nuclei were determined after 24 hr with the In situ Cell Death Detection Kit (Roche, Indianapolis, Ind.) in combination with staining for troponin I.
# [4] = test system: Adult male Sprague-Dawley rats; assay: Cardiomyocyte cell cycle activity in vivo after intramyocardial injection; design: species or system rat; LVFW CM nuclei: unit not given here
# Description: Experiments were performed in accordance with institutional guidelines of Massachusetts General Hospital. Injections and analyses were performed in a blinded fashion. Adult male Sprague-Dawley rats (300 gm, Charles River Laboratories) underwent thoracotomy and received intramyocardial injections of 50 μg of recombinant human periostin consisting of the fas1-4 domains, 50 μg of rat fibronectin, or 100 μL of 100 mM sodium acetate as a control (5 rats per group). The survival rate for this procedure was 80%. Injected periostin was confirmed by detection with a polyclonal antibody directed against human periostin (Abcam) and visualized by immunofluorescence microscopy. Intraperitoneal injections of BrdU (70 μmol/kg body weight) with a tissue half life of 2 hr were given every 48 hr, and rats were sacrificed after the third injection. Horizontal cryosections of 14 μm thickness spaced at 1 mm intervals were analyzed by laser scanning immunofluorescence microscopy. BrdU-positive cardiomyocyte nuclei and cytokineses were quantified on 16-20 sections per heart. Fibrosis and cardiomyocyte cross-sectional area were determined on 5 Masson's Trichrome-stained sections at the level of the injection at 40× magnification and quantified using the Metamorph software package (Molecular Devices Corp., Downingtown, Pa.).
# [5] = U0126 10 μM, PD98059 1 μM, LY294002 10 μM, Wortmannin 0.1 μM
# [6] = 1 week after intracardiac injection
molecule,measurement,setting,value
O.O=C(O)C(F)(F)F.O=c1[nH]c2ccccc2n1C1CCN(Cc2ccc(-c3nc4cc5[nH]cnc5cc4nc3-c3ccccc3)cc2)CC1 [Akt1/2 inhibitor],inhibition of periostin-induced DNA synthesis / cell-cycle reentry by kinase inhibitors,[1]; differentiated cardiomyocytes,reduced
COc1cccc(-c2cc(=O)c3ccccc3o2)c1N [PD98059],inhibition of neuregulin-induced cell-cycle reentry,[1]; differentiated cardiomyocytes,inhibited
same,inhibition of periostin-induced DNA synthesis / cell-cycle reentry by kinase inhibitors,[1]; differentiated cardiomyocytes,did not reduce; also recorded: did not block
same,inhibition of periostin-stimulated DNA synthesis by ERK and PI3-kinase inhibitors,[2]; [5],inhibited only by blocking Akt activation
same,inhibition of periostin-stimulated cytokinesis by ERK and PI3-kinase inhibitors,[2]; [5],inhibited
same,inhibition of periostin-stimulated proliferation by ERK and PI3-kinase inhibitors,[3],inhibited
C[S+]([O-])c1ccc(-c2nc(-c3ccncc3)c(-c3ccc(F)cc3)[nH]2)cc1 (stereo not shown) [SB203580],effect on periostin-induced cardiomyocyte DNA synthesis when added,"[1]; FGF 100 ng/ml, SB203580 5 mM or 10 mM as printed",no additional effect
N#CC(=C(/N)Sc1ccccc1N)/C(C#N)=C(\N)Sc1ccccc1N [U0126],inhibition of neuregulin-induced cell-cycle reentry,[1]; differentiated cardiomyocytes,inhibited
same,inhibition of periostin-induced DNA synthesis / cell-cycle reentry by kinase inhibitors,[1]; differentiated cardiomyocytes,did not reduce; also recorded: did not block
same,inhibition of periostin-stimulated DNA synthesis by ERK and PI3-kinase inhibitors,[2],inhibited only by blocking Akt activation
same,inhibition of periostin-stimulated cytokinesis by ERK and PI3-kinase inhibitors,[2],inhibited
same,inhibition of periostin-stimulated proliferation by ERK and PI3-kinase inhibitors,[3],inhibited
Cyclic Arg-Gly-Asp [cRGD],inhibition of periostin-stimulated DNA synthesis by integrin blockers,[2],inhibited; also recorded: blocked
same,inhibition of periostin-stimulated proliferation by integrin blockers,[3],blocked
Fibronectin: Rat fibronectin from Biomedical Technologies; extracellular matrix component [reference compound],induction of cardiomyocyte DNA synthesis,[2],did not induce DNA synthesis
same,LVFW BrdU-positive CM nuclei,[4]; [6],0.002 ± 0.0004%
same,LVFW CM nuclei,[4]; [6],10.7 ± 0.4 10^$$ per heart
same,LVFW BrdU-positive CM nuclei,"[4]; 1 week after intracardiac injection, 3 BrdU injections",273.6 ± 42.8 per heart
same,LVFW myocardial volume,"[4]; 1 week after intracardiac injection, 50 μg periostin (fas1-4 domains) or 50 μg rat fibronectin",224 ± 6 mm^3
same,cardiomyocyte DNA synthesis in vivo,[4]; FIG. 4c,did not increase
same,cardiomyocyte cytokinesis in vivo,[4]; FIG. 4d,did not increase
SH-6,inhibition of periostin-induced DNA synthesis / cell-cycle reentry by kinase inhibitors,[1]; differentiated cardiomyocytes,reduced
"collagen: type 1 rat collagen, extracellular matrix component known to activate integrins",induction of cardiomyocyte DNA synthesis,[2],did not induce DNA synthesis
"integrin αV antibody: integrin αV (RMV-7) blocking antibody, BioLegend",inhibition of periostin-stimulated DNA synthesis by integrin antibodies,[1]; differentiated cardiomyocytes,inhibited
same,inhibition of periostin-stimulated DNA synthesis by integrin blockers,[2],inhibited
same,inhibition of periostin-stimulated proliferation by integrin blockers,[3],inhibited
B1,induction of cardiomyocyte DNA synthesis,[2],stimulated DNA synthesis as effectively as FGF
B2,activation of the cardiomyocyte cell cycle,[2]; control for non-protein impurity,did not activate
